Results reported in ChEMBL document CHEMBL1909046, “DrugMatrix in vitro pharmacology data”.

Tests used:
[1] = DRUGMATRIX: Sodium/nucleoside co-transporter radioligand binding (ligand: nitrobenzylthioinosine); type: cell membranes, Cavia porcellus, Dunkin-Hartley, Cerebral cortex, Membrane; conditions: Not Active = under 50% inhibition at 10 µM
[2] = molecular target: Beta-1 adrenergic receptor (Homo sapiens, UniProt P08588); test: DRUGMATRIX: Adrenergic beta1 radioligand binding (ligand: [125I] Cyanopindolol); type: cell membranes, CHO-K1, Membrane; conditions: cho-k1; Not Active = under 50% inhibition at 10 µM
[3] = molecular target: Sodium-dependent noradrenaline transporter (Homo sapiens, UniProt P23975); test: DRUGMATRIX: Norepinephrine Transporter radioligand binding (ligand: [125I] RTI-55); type: cell membranes, MDCK, Membrane; conditions: mdck; Not Active = under 50% inhibition at 10 µM
[4] = DRUGMATRIX: ATPase, Na+/K+ enzyme inhibition (substrate: ATP); type: tissue-based, Sus scrofa, Heart; conditions: Not Active = under 50% inhibition at 10 µM
[5] = DRUGMATRIX: Calcium Channel Type L, Dihydropyridine radioligand binding (ligand: [3H] Nitrendipine); type: cell membranes, Rattus norvegicus, Wistar, Cerebral cortex, Membrane; conditions: Not Active = under 50% inhibition at 10 µM
[6] = DRUGMATRIX: Glutamate, AMPA radioligand binding (ligand: [3H] AMPA); type: cell membranes, Rattus norvegicus, Wistar, Cerebral cortex, Membrane; conditions: Not Active = under 50% inhibition at 10 µM
Mu-type opioid receptor = Mu-type opioid receptor (Homo sapiens, UniProt P35372); test: DRUGMATRIX: Opiate mu (OP3, MOP) radioligand binding (ligand: [3H] Diprenorphine); type: cell membranes, CHO-K1, Membrane; conditions: cho-k1; Not Active = under 50% inhibition at 10 µM
Sequence of Mu-type opioid receptor (P35372 whole entry): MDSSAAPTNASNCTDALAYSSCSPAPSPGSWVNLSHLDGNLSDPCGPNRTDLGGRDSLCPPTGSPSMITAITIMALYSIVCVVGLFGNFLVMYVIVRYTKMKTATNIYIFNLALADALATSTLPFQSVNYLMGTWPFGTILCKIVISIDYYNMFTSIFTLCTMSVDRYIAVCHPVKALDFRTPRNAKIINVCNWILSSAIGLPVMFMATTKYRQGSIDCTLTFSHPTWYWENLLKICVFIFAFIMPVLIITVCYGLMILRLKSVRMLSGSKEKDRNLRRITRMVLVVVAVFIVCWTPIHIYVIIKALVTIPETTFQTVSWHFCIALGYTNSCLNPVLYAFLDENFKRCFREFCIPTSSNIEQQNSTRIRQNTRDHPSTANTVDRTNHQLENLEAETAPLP

Sequence of Sodium-dependent noradrenaline transporter (P23975 whole entry): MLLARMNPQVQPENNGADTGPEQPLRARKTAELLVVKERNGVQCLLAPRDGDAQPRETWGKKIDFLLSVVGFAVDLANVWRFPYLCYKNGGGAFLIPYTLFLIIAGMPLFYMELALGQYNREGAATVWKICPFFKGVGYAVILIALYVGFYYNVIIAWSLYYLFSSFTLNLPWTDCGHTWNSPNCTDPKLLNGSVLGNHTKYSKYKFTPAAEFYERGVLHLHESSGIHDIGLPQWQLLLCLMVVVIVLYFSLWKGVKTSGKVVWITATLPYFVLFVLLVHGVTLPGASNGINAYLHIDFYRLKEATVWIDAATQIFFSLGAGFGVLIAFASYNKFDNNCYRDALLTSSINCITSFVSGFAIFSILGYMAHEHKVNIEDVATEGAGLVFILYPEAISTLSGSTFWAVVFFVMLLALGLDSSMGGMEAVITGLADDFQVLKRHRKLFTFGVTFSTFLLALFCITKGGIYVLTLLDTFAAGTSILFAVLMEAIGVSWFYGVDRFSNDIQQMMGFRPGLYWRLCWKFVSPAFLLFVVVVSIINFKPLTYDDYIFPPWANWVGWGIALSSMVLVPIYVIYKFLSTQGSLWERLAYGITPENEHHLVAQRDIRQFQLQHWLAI
Sequence of Beta-1 adrenergic receptor (P08588 whole entry): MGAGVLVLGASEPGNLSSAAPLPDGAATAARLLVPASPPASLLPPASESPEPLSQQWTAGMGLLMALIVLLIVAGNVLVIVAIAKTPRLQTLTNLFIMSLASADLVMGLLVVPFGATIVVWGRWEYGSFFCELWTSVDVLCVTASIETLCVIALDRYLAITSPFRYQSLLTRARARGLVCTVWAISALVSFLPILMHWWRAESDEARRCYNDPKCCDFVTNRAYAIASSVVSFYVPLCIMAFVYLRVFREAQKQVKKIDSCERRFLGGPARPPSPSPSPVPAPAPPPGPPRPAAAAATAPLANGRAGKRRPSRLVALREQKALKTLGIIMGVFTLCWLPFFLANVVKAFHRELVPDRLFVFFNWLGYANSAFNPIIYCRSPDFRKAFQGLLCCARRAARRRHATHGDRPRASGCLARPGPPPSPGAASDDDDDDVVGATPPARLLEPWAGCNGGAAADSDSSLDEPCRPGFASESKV

C[N+](C)(C)CCOC(=O)CCC(=O)OCC[N+](C)(C)C.[Cl-].[Cl-] [SUCCINYLCHOLINE CHLORIDE]
Not Active: IC50 [1] | Ki [1] | IC50 [2] | IC50 [3] | IC50 [4] | Ki [4] | IC50 [5] | Ki [5] | IC50 [6] | Ki [6] | IC50 (Mu-type opioid receptor)

Nc1ccc(S(=O)(=O)NC(=O)c2ccccc2)cc1 [SULFABENZAMIDE]
Not Active: IC50 [1] | Ki [1] | IC50 [2] | IC50 [3] | IC50 [4] | Ki [4] | IC50 [5] | Ki [5] | IC50 [6] | Ki [6] | IC50 (Mu-type opioid receptor)

O=c1[nH]c(=O)n(C2CCCO2)cc1F (configuration not stated) [TEGAFUR]
Not Active: IC50 [1] | Ki [1] | IC50 [2] | IC50 [3] | IC50 [4] | Ki [4] | IC50 [5] | Ki [5] | IC50 [6] | Ki [6] | IC50 (Mu-type opioid receptor)

CC(=N)S [THIOACETAMIDE]
Not Active: IC50 [1] | Ki [1] | IC50 [2] | IC50 [3] | IC50 [4] | Ki [4] | IC50 [5] | Ki [5] | IC50 [6] | Ki [6] | IC50 (Mu-type opioid receptor)

Cc1ccc(C(=O)c2ccc(CC(=O)O)n2C)cc1 [TOLMETIN]
Not Active: IC50 [1] | Ki [1] | IC50 [2] | IC50 [3] | IC50 [4] | Ki [4] | IC50 [5] | Ki [5] | IC50 [6] | Ki [6] | IC50 (Mu-type opioid receptor)

CC(=O)OCC(COC(C)=O)OC(C)=O [TRIACETIN]
Not Active: IC50 [1] | Ki [1] | IC50 [2] | IC50 [3] | IC50 [4] | Ki [4] | IC50 [5] | Ki [5] | IC50 [6] | Ki [6] | IC50 (Mu-type opioid receptor)

CN1CCN(CCCN2c3ccccc3Sc3ccc(C(F)(F)F)cc32)CC1 [TRIFLUOPERAZINE]
Not Active: IC50 [1] | Ki [1] | IC50 [2] | IC50 [3] | IC50 [4] | Ki [4] | IC50 [5] | Ki [5] | IC50 [6] | Ki [6] | IC50 (Mu-type opioid receptor)
